Where two headings read alike, the source gives them in different places.
Columns and labels:
[1] = system: E. coli mL308 225; experiment: In Vitro Anti-Bacterial Activity Assay (MIC), gram negative; assay type: cell-based; settings: Escherichia coli, ML308225, 18 h
[2] = system: S. aureus RN450; experiment: In Vitro Anti-Bacterial Activity Assay (MIC), gram positive; assay type: cell-based; settings: Staphylococcus aureus, RN450, 18 h
[3] = MIC class, Table 3, read-out: Antibiotic Activity Gram −
[4] = MIC class, Table 3, read-out: Antibiotic Activity Gram +
[5] = gram negative bacteria, read-out: Antibiotic Activity Gram − (MIC)
[6] = gram positive bacteria, read-out: Antibiotic Activity Gram + (MIC)
[7] = MIC class, Table 3 (Continued), read-out: Gram− activity
[8] = MIC class, Table 3 (Continued), read-out: Gram+ activity
[9] = read-out: Antibiotic Activity Gram −
[10] = read-out: Antibiotic Activity Gram +

Compound: CN(C)c1cc(NCc2cccnc2)c(O)c2c1C[C@H]1C[C@H]3C(N(C)C)C(O)=C(C(N)=O)C(=O)[C@@]3(O)C(O)=C1C2=O (stereo partly drawn) [FA]
- MIC [1, 3]: > 4 µg/mL
- MIC [2, 4]: > 4 µg/mL

Compound: CN(C)c1cc(CNC(=O)C2CCCN2)c(O)c2c1C[C@H]1C[C@H]3[C@H](N(C)C)C(O)=C(C(N)=O)C(=O)[C@@]3(O)C(O)=C1C2=O (stereo partly drawn)
- MIC [1, 5]: > 4 µg/mL
- MIC [2, 6]: > 4 µg/mL

Compound: CCCCOC(=O)C#Cc1cc(N(C)C)c2c(c1O)C(=O)C1=C(O)[C@]3(O)C(=O)C(C(N)=O)=C(O)[C@@H](N(C)C)[C@@H]3C[C@@H]1C2 [DL]
- MIC [1, 3]: > 4 µg/mL
- MIC [2, 4]: > 4 µg/mL

Compound: CN(C)[C@@H]1C(O)=C(C(N)=O)C(=O)[C@@]2(O)C(O)=C3C(=O)c4c(O)ccc(CNCc5ccc[nH]5)c4C[C@H]3C[C@@H]12 [KH]
- MIC [1, 3]: < 4 µg/mL
- MIC [2, 4]: < 4 µg/mL

Compound: CN(C)[C@@H]1C(O)=C(C(N)=O)C(=O)[C@@]2(O)C(O)=C3C(=O)c4c(O)ccc(C#Cc5ccc(NS(C)(=O)=O)cc5)c4C[C@H]3C[C@@H]12 [BU]
- MIC [1, 3]: > 4 µg/mL
- MIC [2, 4]: < 4 µg/mL

Compound: CN(C)[C@@H]1C(O)=C(C(N)=O)C(=O)[C@@]2(O)C(O)=C3C(=O)c4c(O)ccc(-c5cccc(C(N)=O)c5)c4C[C@H]3C[C@@H]12 [CN]
- MIC [1, 3]: < 4 µg/mL
- MIC [2, 4]: < 4 µg/mL

Compound: CN(C)c1cc(CNCc2cccn2C)c(O)c2c1C[C@H]1C[C@H]3[C@H](N(C)C)C(O)=C(C(N)=O)C(=O)[C@@]3(O)C(O)=C1C2=O
- MIC [1, 5]: > 4 µg/mL
- MIC [2, 6]: < 4 µg/mL

Compound: CN(C)c1ccc(-c2ccc(O)c3c2C[C@H]2C[C@H]4[C@H](N(C)C)C(O)=C(C(N)=O)C(=O)[C@@]4(O)C(O)=C2C3=O)cc1
- MIC [1, 7]: < 4 µg/mL
- MIC [2, 8]: < 4 µg/mL

Compound: CC(CF)Nc1ccc(-c2ccc(O)c3c2C[C@H]2C[C@H]4[C@H](N(C)C)C(O)=C(C(N)=O)C(=O)[C@@]4(O)C(O)=C2C3=O)cc1 (stereo partly drawn)
- MIC [1, 5]: > 4 µg/mL
- MIC [2, 6]: < 4 µg/mL

Compound: CC(=O)Cc1cc(N(C)C)c2c(c1O)C(=O)C1=C(O)[C@]3(O)C(=O)C(C(N)=O)=C(O)[C@@H](N(C)C)[C@@H]3C[C@@H]1C2
- MIC [1, 5]: > 4 µg/mL
- MIC [2, 6]: < 4 µg/mL

Compound: CN(C)c1ccc(O)c2c1C[C@H]1C[C@H]3[C@H](N(C)C)C(O)=C(C(=O)NCNC(=O)CCl)C(=O)[C@@]3(O)C(O)=C1C2=O [DN]
- MIC [1, 3]: > 4 µg/mL
- MIC [2, 4]: < 4 µg/mL

Compound: CNC(=O)C1CCN(Cc2cc(N(C)C)c3c(c2O)C(=O)C2=C(O)[C@]4(O)C(=O)C(C(N)=O)=C(O)[C@@H](N(C)C)[C@@H]4C[C@@H]2C3)CC1
- MIC [1, 5]: < 4 µg/mL
- MIC [2, 6]: < 4 µg/mL

Compound: CN(C)c1cc(NC2CC(C)(C)NC(C)(C)C2)c(O)c2c1C[C@H]1C[C@H]3[C@H](N(C)C)C(O)=C(C(N)=O)C(=O)[C@@]3(O)C(O)=C1C2=O
- MIC [1, 5]: > 4 µg/mL
- MIC [2, 6]: > 4 µg/mL

Compound: CCOP(=O)(OCC)C(Nc1ccc2c(c1O)C(=O)C1=C(O)[C@]3(O)C(=O)C(C(N)=O)=C(O)[C@@H](N(C)C)[C@@H]3[C@@H](O)[C@@H]1[C@H]2C)c1ccc(OC)cc1 (stereo partly drawn)
- MIC ([1]; read-out: Gram− activity): > 4 µg/mL
- MIC ([2]; read-out: Gram+ activity): < 4 µg/mL

Compound: CN(C)c1cc(NC(=O)Nc2ccccc2)c(O)c2c1C[C@H]1C[C@H]3C(N(C)C)C(O)=C(C(N)=O)C(=O)[C@@]3(O)C(O)=C1C2=O (stereo partly drawn)
- MIC [1, 7]: < 4 µg/mL
- MIC [2, 8]: < 4 µg/mL

Compound: CN(C)[C@@H]1C(O)=C(C(N)=O)C(=O)[C@@]2(O)C(O)=C3C(=O)c4c(O)ccc(C#CCc5ccccc5)c4C[C@H]3C[C@@H]12
- MIC [1, 7]: < 4 µg/mL
- MIC [2, 8]: < 4 µg/mL

Compound: CN(C)CC#Cc1ccc(O)c2c1C[C@H]1C[C@H]3[C@H](N(C)C)C(O)=C(C(N)=O)C(=O)[C@@]3(O)C(O)=C1C2=O [AL]
- MIC [1, 3]: < 4 µg/mL
- MIC [2, 4]: < 4 µg/mL

Compound: CCOC(=O)NCc1cc(N(C)C)c2c(c1O)C(=O)C1=C(O)[C@]3(O)C(=O)C(C(N)=O)=C(O)[C@H](N(C)C)[C@@H]3C[C@@H]1C2 [ES]
- MIC [1, 3]: > 4 µg/mL
- MIC [2, 4]: < 4 µg/mL

Compound: C[C@H]1c2ccc(-c3ccc(C=O)cc3)c(O)c2C(=O)C2=C(O)[C@]3(O)C(=O)C(C(N)=O)=C(O)[C@@H](N(C)C)[C@@H]3[C@@H](O)[C@@H]21
- MIC [1, 5]: < 4 µg/mL
- MIC [2, 6]: < 4 µg/mL

Compound: CC(C)CNCc1cc(N(C)C)c2c(c1O)C(=O)C1=C(O)[C@]3(O)C(=O)C(C(N)=O)=C(O)[C@@H](N(C)C)[C@@H]3C[C@@H]1C2 [drawing 3469]
- MIC [1, 5]: < 4 µg/mL
- MIC [2, 6]: < 4 µg/mL

Compound: CN(C)c1ccc2c(c1O)C(=O)C1=C(O)[C@]3(O)C(=O)C(C(N)=O)=C(O)[C@@H](N(C)C)[C@@H]3C[C@@H]1C2 [JX]
- MIC [1, 3]: > 4 µg/mL
- MIC [2, 4]: < 4 µg/mL

Compound: CC(=O)c1cc(I)c(O)c2c1C[C@H]1C[C@H]3[C@H](N(C)C)C(O)=C(C(N)=O)C(=O)[C@@]3(O)C(O)=C1C2=O [JW]
- MIC [1, 3]: > 4 µg/mL
- MIC [2, 4]: > 4 µg/mL

Compound: CN(C)C(=O)CNc1cc(N(C)C)c2c(c1O)C(=O)C1=C(O)[C@]3(O)C(=O)C(C(N)=O)=C(O)[C@@H](N(C)C)[C@@H]3C[C@@H]1C2
- MIC [1, 5]: > 4 µg/mL
- MIC [2, 6]: > 4 µg/mL

Compound: CC1c2ccc(-c3cc4ccccc4o3)c(O)c2C(=O)C2=C(O)[C@]3(O)C(=O)C(C(N)=O)=C(O)[C@@H](N(C)C)[C@@H]3[C@@H](O)[C@@H]21 (stereo partly drawn)
- MIC [1, 7]: < 4 µg/mL
- MIC [2, 8]: < 4 µg/mL

Compound: CN(C)CCCc1ccc(O)c2c1C[C@H]1C[C@H]3[C@H](N(C)C)C(O)=C(C(N)=O)C(=O)[C@@]3(O)C(O)=C1C2=O [BQ]
- MIC [1, 3]: > 4 µg/mL
- MIC [2, 4]: < 4 µg/mL

Compound: CN(C)[C@@H]1C(O)=C(C(N)=O)C(=O)[C@@]2(O)C(O)=C3C(=O)c4c(ccc(NC(=O)Oc5ccc(F)cc5)c4O)C[C@H]3C[C@@H]12
- MIC ([1]; read-out: Gram− activity): > 4 µg/mL
- MIC ([2]; read-out: Gram+ activity): > 4 µg/mL

Compound: CN(C)c1cc(CNCc2ccccc2F)c(O)c2c1C[C@H]1C[C@H]3[C@H](N(C)C)C(O)=C(C(N)=O)C(=O)[C@@]3(O)C(O)=C1C2=O
- MIC [1, 5]: > 4 µg/mL
- MIC [2, 6]: < 4 µg/mL

Compound: C[C@H]1c2ccc(NC(=O)Oc3ccc(F)cc3)c(O)c2C(=O)C2=C(O)[C@]3(O)C(=O)C(C(N)=O)=C(O)[C@@H](N(C)C)[C@@H]3[C@@H](O)[C@@H]21 [V]
- MIC [1, 9]: > 4 µg/mL
- MIC [2, 10]: > 4 µg/mL

Compound: CCOC(=O)COC1=C(C(N)=O)C(=O)[C@@]2(O)C(O)=C3C(=O)c4c(O)cccc4C[C@H]3C[C@H]2[C@@H]1N(C)C [OR]
- MIC [1, 3]: > 4 µg/mL
- MIC [2, 4]: > 4 µg/mL

Compound: CN(C)c1cc(CN2CCCCC2)c(O)c2c1C[C@H]1C[C@H]3[C@H](N(C)C)C(O)=C(C(N)=O)C(=O)[C@@]3(O)C(O)=C1C2=O
- MIC [1, 5]: < 4 µg/mL
- MIC [2, 6]: < 4 µg/mL

Compound: CN(C)C(=O)c1cccc(-c2ccc(O)c3c2C[C@H]2C[C@H]4[C@H](N(C)C)C(O)=C(C(N)=O)C(=O)[C@@]4(O)C(O)=C2C3=O)c1 [AD]
- MIC [1, 3]: > 4 µg/mL
- MIC [2, 4]: < 4 µg/mL

Compound: CN(C)c1cc(CNNCC(F)(F)F)c(O)c2c1C[C@H]1C[C@H]3[C@H](N(C)C)C(O)=C(C(N)=O)C(=O)[C@@]3(O)C(O)=C1C2=O
- MIC [1, 5]: > 4 µg/mL
- MIC [2, 6]: < 4 µg/mL

Compound: CN(C)[C@@H]1C(O)=C(C(N)=O)C(=O)[C@@]2(O)C(O)=C3C(=O)c4c(O)c(CN5CCCCC5)cc(-c5ccoc5)c4C[C@H]3C[C@@H]12 [PQ]
- MIC [1, 3]: < 4 µg/mL
- MIC [2, 4]: < 4 µg/mL

Compound: NC(=O)C1=C(O)C[C@@H]2C[C@@H]3Cc4cccc(O)c4C(=O)C3=C(O)[C@]2(O)C1=O
- MIC [1, 5]: < 4 µg/mL
- MIC [2, 6]: < 4 µg/mL

Compound: CC(=O)Cc1cc(-c2ccccn2)c2c(c1O)C(=O)C1=C(O)[C@]3(O)C(=O)C(C(N)=O)=C(O)[C@@H](N(C)C)[C@@H]3C[C@@H]1C2
- MIC [1, 5]: > 4 µg/mL
- MIC [2, 6]: > 4 µg/mL

Compound: CN(C)[C@@H]1C(O)=C(C(N)=O)C(=O)[C@@]2(O)C(O)=C3C(=O)c4c(O)ccc(-c5ccc(NC(=O)C6CCCN6C(=O)C(F)(F)F)cc5)c4C[C@H]3C[C@@H]12 (stereo partly drawn) [OH]
- MIC [1, 3]: > 4 µg/mL
- MIC [2, 4]: < 4 µg/mL

Compound: CN(C)[C@@H]1C(O)=C(C(N)=O)C(=O)[C@@]2(O)C(O)=C3C(=O)c4c(O)ccc(C(=O)CN5CCCCC5)c4C[C@H]3C[C@@H]12
- MIC [1, 5]: < 4 µg/mL
- MIC [2, 6]: < 4 µg/mL

Compound: CN(C)[C@@H]1C(O)=C(C(N)=O)C(=O)[C@@]2(O)C(O)=C3C(=O)c4c(O)c(CN)cc(Cl)c4C=C3C[C@@H]12
- MIC [1, 5]: > 4 µg/mL
- MIC [2, 6]: > 4 µg/mL

Compound: CN(C)[C@@H]1C(O)=C(C(N)=O)C(=O)[C@@]2(O)C(O)=C3C(=O)c4c(O)c(N)cc(-c5ccoc5)c4C[C@H]3C[C@@H]12 [KT]
- MIC [1, 3]: < 4 µg/mL
- MIC [2, 4]: < 4 µg/mL

Compound: Cc1ccc(OC(=O)Nc2ccc(O)c3c2C[C@H]2C[C@H]4[C@H](N(C)C)C(O)=C(C(N)=O)C(=O)[C@@]4(O)C(O)=C2C3=O)cc1 [AV]
- MIC [1, 9]: < 4 µg/mL
- MIC [2, 10]: < 4 µg/mL

Compound: Cc1ccc(S(=O)(=O)NCC#Cc2cc(N(C)C)c3c(c2O)C(=O)C2=C(O)[C@]4(O)C(=O)C(C(N)=O)=C(O)C(N(C)C)[C@@H]4C[C@@H]2C3)cc1 (stereo partly drawn) [CZ]
- MIC [1, 3]: > 4 µg/mL
- MIC [2, 4]: > 4 µg/mL

Compound: CN(C)c1cc(CNCC(C)(C)C)c(O)c2c1C[C@H]1C[C@H]3[C@H](N(C)C)C(O)=C(C(N)=O)C(=O)[C@@]3(O)C(O)=C1C2=O [drawing 3433]
- MIC [1, 5]: > 4 µg/mL
- MIC [2, 6]: < 4 µg/mL

Compound: CN(C)c1cc(CN2CCC3(CC2)OCCO3)c(O)c2c1C[C@H]1C[C@H]3[C@H](N(C)C)C(O)=C(C(N)=O)C(=O)[C@@]3(O)C(O)=C1C2=O
- MIC [1, 5]: < 4 µg/mL
- MIC [2, 6]: < 4 µg/mL

Compound: CCOC(=O)CNC(=O)c1cccc(-c2ccc(O)c3c2C[C@H]2C[C@H]4[C@H](N(C)C)C(O)=C(C(N)=O)C(=O)[C@@]4(O)C(O)=C2C3=O)c1 [GS]
- MIC [1, 3]: > 4 µg/mL
- MIC [2, 4]: < 4 µg/mL

Compound: COC(=O)C(=O)Nc1ccc(-c2ccc(O)c3c2C[C@H]2C[C@H]4[C@H](N(C)C)C(O)=C(C(N)=O)C(=O)[C@@]4(O)C(O)=C2C3=O)cc1
- MIC [1, 5]: > 4 µg/mL
- MIC [2, 6]: < 4 µg/mL

Source: US20150141381A1, “TETRACYCLINE COMPOUNDS HAVING TARGET THERAPEUTIC ACTIVITIES” (Paratek Pharmaceuticals, Inc., priority 2001, published 2015)
